This is an account of results in KR20230003036A, “렌바티닙 메실레이트의 결정형 xi 및 이의 제조방법” (청두 이스턴 바이오파마슈티컬 컴퍼니 리미티드, priority 2020, dated 2021).

The nature of one data set: in vivo. Particulars: rat, po, 1.25 mg/kg.
The nature of data set [1]: Dissolution experiment of crystalline form XI capsules (paddle method, pH 4.0 medium). It counts as physicochemical. Particulars: capsules of form XI (Example 12), 900ml, 37℃, 75r/min, UV 250nm.
A short description of data set [2]: Crystal form stability under storage conditions (XRD, day 0 vs day 30). Type of data set: physicochemical. Particulars: storage conditions of Table 3 (high temperature 60℃, high humidity 92.5%, high humidity 75%, light irradiation), sample of Example 11.
Data set [3] in a line: Impurity stability under storage conditions (HPLC purity after 30 days). It counts as physicochemical. Particulars: high temperature 60℃, high humidity 92.5%, high humidity 75% and light irradiation, sample of Example 11.
A short description of data set [4]: Powder flowability experiment (tap density, compression coefficient). It counts as physicochemical.
Data set [5] in a line: Hygroscopicity experiment of crystalline form XI (DVS, dynamic vapour sorption). Type of data set: physicochemical. To be noted: 25℃, sample of Example 1.

In the case of `COc1cc2nccc(Oc3ccc(NC(=O)NC4CC4)c(Cl)c3)c2cc1C(N)=O` [결정형 XI, 렌바티닙 메실레이트, 메실레이트 이수화물], in “in vivo”, the AUC(0-t) at 24 h was 22900 ± 2840 ng·h/mL, the concentration peaked (Cmax) at 2290 ± 216 ng/mL and the Tmax is 4 ± 1.73 h. Further, the “time at which dissolution is basically complete” value in data set [1] is on record as roughly 120 min. Moreover, the “change of crystal form (XRD pattern)” value in data set [2] is recorded as “결정형 변화가 없었다”. In addition, in data set [3], the “change of purity (HPLC)” value was “큰 변화가 없었다”. The “flowability (comparison)” value in data set [4] (form XI (Example 12) vs form C (made according to CN100569753C)) is reported as “결정형 C의 유동성보다 훨씬 우수하며”. For the same compound, the weight loss in data set [5] (relative humidity 0~40%) is given as roughly 0.33%. Moreover, in data set [5] (relative humidity 40~80%), the “weight gain by moisture absorption” value is roughly 0.25%.

Regarding `COc1cc2nccc(Oc3ccc(NC(=O)NC4CC4)c(Cl)c3)c2cc1C(N)=O` [결정형 C, 렌바티닙 메실레이트], the “compression coefficient (comparison)” value in data set [4] (compression coefficient (%) = 100% (tap density - bulk density)/tap density, form C (made according to CN100569753C) vs form XI (Example 12)) is recorded as “결정형 XI의 압축 계수보다 훨씬 더 높으며”.
